Laboratory results from ChEMBL document CHEMBL1212792, “Comparative pharmacokinetics of ceftaroline in rats, rabbits, and monkeys following a single intravenous or intramuscular injection” (Antimicrob Agents Chemother, 2010).
≈ marks a conversion by molar mass, not a printed value.

Columns and labels:
[1] = %T>MIC human infected with Staphylococcus at 600 mg. im administered every 12 hrs; conditions: route intramuscular
[2] = system: Staphylococcus; experiment: Antibacterial activity against Staphylococcus infected in human; format: functional
[3] = %T>MIC in Staphylococcus aureus-infected neutropenic mouse model; format: functional
[4] = %T>MIC in rabbit endocarditis model at 20 mg/kg, im administered as single dose measured after 12 hrs; format: functional; conditions: route intramuscular
[5] = %T>MIC in Streptococcus pneumoniae-infected neutropenic mouse model; format: functional
[6] = system: Staphylococcus; experiment: Antibacterial activity against Staphylococcus; format: functional
[7] = %T>MIC in gram negative bacteria-infected neutropenic mouse model; format: functional
[8] = %T>MIC in rabbit endocarditis model at 20 mg/kg, im administered as single dose measured after 8 hrs; format: functional; conditions: route intramuscular
[9] = system: Streptococcus pneumoniae; experiment: Antibacterial activity against Streptococcus pneumoniae; format: functional

CCO/N=C(\C(=O)N[C@@H]1C(=O)N2C(C(=O)[O-])=C(Sc3nc(-c4cc[n+](C)cc4)cs3)CS[C@H]12)c1nsc(NP(=O)(O)O)n1 [CEFTAROLINE FOSAMIL]
fT>MIC [1]: 64.65%
MIC [2]: 0.12 µg/mL (≈ 0.175 µM)
fT>MIC [3]: 26%
fT>MIC [4]: 30.9%
fT>MIC [5]: 39%
MIC90 [6]: ≤ 2 µg/mL
fT>MIC [7]: 32%
fT>MIC [8]: 46.3%
MIC90 [9]: ≤ 2 µg/mL
